What was measured:
Rattus norvegicus [1] = assay: Total electrolytic excretion of potassium in urine of rats after peroral administration of 80.9 uM/Kg of drug; type: ADME, organism-based; settings: in vivo, po
Rattus norvegicus [2] = assay: Tested for the diuretic activity by measuring the urinary volume after peroral administering 80.9 uM/Kg of drug in rats; type: ADME, organism-based, Urine; settings: in vivo, po
Rattus norvegicus [3] = assay: Total electrolytic excretion of potassium in urine of rats after peroral administration of 27 uM/Kg of drug; type: ADME, organism-based; settings: in vivo, po
Rattus norvegicus [4] = assay: Total electrolytic excretion of sodium in urine of rats after peroral administration of 80.9 uM/Kg of drug; type: ADME, organism-based; settings: in vivo, po
Rattus norvegicus [5] = assay: Total electrolytic excretion of chlorine in urine of rats after peroral administration of 27 uM/Kg of drug; type: ADME, organism-based; settings: in vivo, po
Rattus norvegicus [6] = assay: Total electrolytic excretion of chlorine in urine of rats after peroral administration of 80.9 uM/Kg of drug; type: ADME, organism-based; settings: in vivo, po
Rattus norvegicus [7] = assay: Total electrolytic excretion of sodium in urine of rats after peroral administration of 270 uM/Kg of drug; type: ADME, organism-based; settings: in vivo, po
Rattus norvegicus [8] = assay: Tested for the diuretic activity by measuring the urinary volume after peroral administering 27 uM/Kg of drug in rats; type: ADME, organism-based, Urine; settings: in vivo, po
Rattus norvegicus [9] = assay: Ratio of Total electrolytic excretion of sodium and potassium in urine of rats after peroral administration of 270 uM/Kg of drug; type: ADME, organism-based; settings: in vivo, po
Rattus norvegicus [10] = assay: Tested for the diuretic activity by measuring the urinary volume after peroral administering 270 uM/Kg of drug in rats; type: ADME, organism-based, Urine; settings: in vivo, po
Rattus norvegicus [11] = assay: Total electrolytic excretion of sodium in urine of rats after peroral administration of 27 uM/Kg of drug; type: ADME, organism-based; settings: in vivo, po
Rattus norvegicus [12] = assay: Total electrolytic excretion of chlorine in urine of rats after peroral administration of 270 uM/Kg of drug; type: ADME, organism-based; settings: in vivo, po
Rattus norvegicus [13] = assay: Total electrolytic excretion of potassium in urine of rats after peroral administration of 270 uM/Kg of drug; type: ADME, organism-based; settings: in vivo, po
Rattus norvegicus [14] = assay: Ratio of Total electrolytic excretion of sodium and potassium in urine of rats after peroral administration of 80.9 uM/Kg of drug; type: ADME, organism-based; settings: in vivo, po
Rattus norvegicus [15] = assay: Ratio of Total electrolytic excretion of sodium and potassium in urine of rats after peroral administration of 27 uM/Kg of drug; type: ADME, organism-based; settings: in vivo, po
Canis familiaris [16] = assay: Total electrolytic excretion of chlorine in urine of dogs after peroral administration of 3.76 uM/Kg of drug; type: ADME, organism-based, Canis lupus familiaris; settings: dog, in vivo, po
Canis familiaris [17] = assay: Ratio of Total electrolytic excretion of sodium and potassium in urine of dogs after peroral administration of 113 uM/Kg of drug; type: ADME, organism-based, Canis lupus familiaris; settings: dog, in vivo, po
Rattus norvegicus [18] = assay: Total electrolytic excretion of sodium in urine of rats after peroral administration of 37.6 uM/Kg of drug; type: ADME, organism-based; settings: in vivo, po
Rattus norvegicus [19] = assay: Total electrolytic excretion of potassium in urine of rats after peroral administration of 11.3 uM/Kg of drug; type: ADME, organism-based; settings: in vivo, po
Rattus norvegicus [20] = assay: Total electrolytic excretion of chlorine in urine of rats after peroral administration of 1.13 uM/Kg of drug; type: ADME, organism-based; settings: in vivo, po
Rattus norvegicus [21] = assay: Total electrolytic excretion of chlorine in urine of rats after peroral administration of 37.6 uM/Kg of drug; type: ADME, organism-based; settings: in vivo, po
Rattus norvegicus [22] = assay: Total electrolytic excretion of sodium in urine of rats after peroral administration of 1.13 uM/Kg of drug; type: ADME, organism-based; settings: in vivo, po
Rattus norvegicus [23] = assay: Tested for the diuretic activity by measuring the urinary volume after peroral administering 37.6 uM/Kg of drug in rats; type: ADME, organism-based, Urine; settings: in vivo, po
Canis familiaris [24] = assay: Ratio of Total electrolytic excretion of sodium and potassium in urine of dogs after peroral administration of 1.13 uM/Kg of drug; type: ADME, organism-based, Canis lupus familiaris; settings: dog, in vivo, po
Rattus norvegicus [25] = assay: Tested for the diuretic activity by measuring the urinary volume after peroral administering 113 uM/Kg of drug in rats; type: ADME, organism-based, Urine; settings: in vivo, po
Canis familiaris [26] = assay: Ratio of Total electrolytic excretion of sodium and potassium in urine of dogs after peroral administration of 37.6 uM/Kg of drug; type: ADME, organism-based, Canis lupus familiaris; settings: dog, in vivo, po
Rattus norvegicus [27] = assay: Tested for the diuretic activity by measuring the urinary volume after peroral administering 1.13 uM/Kg of drug in rats; type: ADME, organism-based, Urine; settings: in vivo, po
Rattus norvegicus [28] = assay: Total electrolytic excretion of chlorine in urine of rats after peroral administration of 3.76 uM/Kg of drug; type: ADME, organism-based; settings: in vivo, po
Rattus norvegicus [29] = assay: Total electrolytic excretion of sodium in urine of rats after peroral administration of 0 uM/Kg of drug; type: ADME, organism-based; settings: in vivo, po
Rattus norvegicus [30] = assay: Total electrolytic excretion of potassium in urine of rats after peroral administration of 3.76 uM/Kg of drug; type: ADME, organism-based; settings: in vivo, po
Rattus norvegicus [31] = assay: Total electrolytic excretion of sodium in urine of rats after peroral administration of 113 uM/Kg of drug; type: ADME, organism-based; settings: in vivo, po
Rattus norvegicus [32] = assay: Total electrolytic excretion of potassium in urine of rats after peroral administration of 0 uM/Kg of drug; type: ADME, organism-based; settings: in vivo, po
Canis familiaris [33] = assay: Total electrolytic excretion of sodium in urine of dogs after peroral administration of 3.76 uM/Kg of drug; type: ADME, organism-based, Canis lupus familiaris; settings: dog, in vivo, po
Rattus norvegicus [34] = assay: Tested for the diuretic activity by measuring the urinary volume after peroral administering 11.3 uM/Kg of drug in rats; type: ADME, organism-based, Urine; settings: in vivo, po
Rattus norvegicus [35] = assay: Total electrolytic excretion of chlorine in urine of rats after peroral administration of 0 uM/Kg of drug; type: ADME, organism-based; settings: in vivo, po
Canis familiaris [36] = assay: Ratio of Total electrolytic excretion of sodium and potassium in urine of dogs after peroral administration of 0 uM/Kg of drug; type: ADME, organism-based, Canis lupus familiaris; settings: dog, in vivo, po
Canis familiaris [37] = assay: Ratio of Total electrolytic excretion of sodium and potassium in urine of dogs after peroral administration of 11.3 uM/Kg of drug; type: ADME, organism-based, Canis lupus familiaris; settings: dog, in vivo, po
Rattus norvegicus [38] = assay: Tested for the diuretic activity by measuring the urinary volume after peroral administering 0 uM/Kg of drug in rats; type: ADME, organism-based, Urine; settings: in vivo, po
Rattus norvegicus [39] = assay: Total electrolytic excretion of sodium in urine of rats after peroral administration of 11.3 uM/Kg of drug; type: ADME, organism-based; settings: in vivo, po
Rattus norvegicus [40] = assay: Total electrolytic excretion of potassium in urine of rats after peroral administration of 1.13 uM/Kg of drug; type: ADME, organism-based; settings: in vivo, po
Rattus norvegicus [41] = assay: Total electrolytic excretion of chlorine in urine of rats after peroral administration of 113 uM/Kg of drug; type: ADME, organism-based; settings: in vivo, po
Canis familiaris [42] = assay: Tested for the diuretic activity by measuring the urinary volume after peroral administering 3.76 uM/Kg of drug in dogs; type: ADME, organism-based, Canis lupus familiaris, Urine; settings: dog, in vivo, po
Rattus norvegicus [43] = assay: Total electrolytic excretion of chlorine in urine of rats after peroral administration of 11.3 uM/Kg of drug; type: ADME, organism-based; settings: in vivo, po
Canis familiaris [44] = assay: Total electrolytic excretion of potassium in urine of dogs after peroral administration of 3.76 uM/Kg of drug; type: ADME, organism-based, Canis lupus familiaris; settings: dog, in vivo, po
Rattus norvegicus [45] = assay: Total electrolytic excretion of sodium in urine of rats after peroral administration of 3.76 uM/Kg of drug; type: ADME, organism-based; settings: in vivo, po
Rattus norvegicus [46] = assay: Total electrolytic excretion of potassium in urine of rats after peroral administration of 113 uM/Kg of drug; type: ADME, organism-based; settings: in vivo, po
Rattus norvegicus [47] = assay: Tested for the diuretic activity by measuring the urinary volume after peroral administering 3.76 uM/Kg of drug in rats; type: ADME, organism-based, Urine; settings: in vivo, po
Rattus norvegicus [48] = assay: Total electrolytic excretion of potassium in urine of rats after peroral administration of 37.6 uM/Kg of drug; type: ADME, organism-based; settings: in vivo, po

**Q.** How did the “Excretion K+” value (Rattus norvegicus [1]) turn out when `CC(C)CC/N=C(/NC1CCCCC1)N1CCOCC1` was run?
**A.** 0.33 m equiv

**Q.** What about the V (Rattus norvegicus [2]) of the same molecule?
**A.** 8.4 mL

**Q.** What about the “Excretion K+” value (Rattus norvegicus [3]) of the same molecule?
**A.** 0.31 m equiv

**Q.** And the “Excretion Na+” value (Rattus norvegicus [4])?
**A.** 1.28 m equiv

**Q.** What about the “Excretion Cl-” value (Rattus norvegicus [5]) of the same molecule?
**A.** 0.96 m equiv

**Q.** And the “Excretion Cl-” value (Rattus norvegicus [6])?
**A.** 1.31 m equiv

**Q.** What about the “Excretion Na+” value (Rattus norvegicus [7]) of the same molecule?
**A.** 1.12 m equiv

**Q.** What about the V (Rattus norvegicus [8]) of the same molecule?
**A.** 6.6 mL

**Q.** And the Ratio (Rattus norvegicus [9])?
**A.** 5.2 [Na+]/[K+]

**Q.** What about the V (Rattus norvegicus [10]) of the same molecule?
**A.** 5.6 mL

**Q.** What about the “Excretion Na+” value (Rattus norvegicus [11]) of the same molecule?
**A.** 0.85 m equiv

**Q.** What about the “Excretion Cl-” value (Rattus norvegicus [12]) of the same molecule?
**A.** 1.01 m equiv

**Q.** What about the “Excretion K+” value (Rattus norvegicus [13]) of the same molecule?
**A.** 0.21 m equiv

**Q.** And the Ratio (Rattus norvegicus [14])?
**A.** 3.9 [Na+]/[K+]

**Q.** What about the Ratio (Rattus norvegicus [15]) of the same molecule?
**A.** 2.7 [Na+]/[K+]

**Q.** `N=C(N)NC(=O)c1nc(Cl)c(N)nc1N` [AMILORIDE] was tested. Which “Excretion Cl-” value (Canis familiaris [16]) did it give?
**A.** 4.3 m equiv

**Q.** What about the Ratio (Canis familiaris [17]) of the same molecule?
**A.** 38.8 [Na+]/[K+]

**Q.** And the “Excretion Na+” value (Rattus norvegicus [18])?
**A.** 2.27 m equiv

**Q.** And the “Excretion K+” value (Rattus norvegicus [19])?
**A.** 0.07 m equiv

**Q.** What about the “Excretion Cl-” value (Rattus norvegicus [20]) of the same molecule?
**A.** 1.14 m equiv

**Q.** And the “Excretion Cl-” value (Rattus norvegicus [21])?
**A.** 1.86 m equiv

**Q.** And the “Excretion Na+” value (Rattus norvegicus [22])?
**A.** 1.33 m equiv

**Q.** And the V (Rattus norvegicus [23])?
**A.** 13.9 mL

**Q.** What about the Ratio (Canis familiaris [24]) of the same molecule?
**A.** 7.8 [Na+]/[K+]

**Q.** What about the V (Rattus norvegicus [25]) of the same molecule?
**A.** 9.4 mL

**Q.** And the Ratio (Canis familiaris [26])?
**A.** 45.2 [Na+]/[K+]

**Q.** And the V (Rattus norvegicus [27])?
**A.** 7.2 mL

**Q.** And the “Excretion Cl-” value (Rattus norvegicus [28])?
**A.** 1.29 m equiv

**Q.** What about the “Excretion Na+” value (Rattus norvegicus [29]) of the same molecule?
**A.** 0.73 m equiv

**Q.** What about the “Excretion K+” value (Rattus norvegicus [30]) of the same molecule?
**A.** 0.1 m equiv

**Q.** What about the “Excretion Na+” value (Rattus norvegicus [31]) of the same molecule?
**A.** 1.77 m equiv

**Q.** And the “Excretion K+” value (Rattus norvegicus [32])?
**A.** 0.36 m equiv

**Q.** And the “Excretion Na+” value (Canis familiaris [33])?
**A.** 9.5 m equiv

**Q.** What about the V (Rattus norvegicus [34]) of the same molecule?
**A.** 12.6 mL

**Q.** What about the “Excretion Cl-” value (Rattus norvegicus [35]) of the same molecule?
**A.** 0.78 m equiv

**Q.** What about the Ratio (Canis familiaris [36]) of the same molecule?
**A.** 2 [Na+]/[K+]

**Q.** And the Ratio (Canis familiaris [37])?
**A.** 30.8 [Na+]/[K+]

**Q.** And the V (Rattus norvegicus [38])?
**A.** 4.8 mL

**Q.** And the “Excretion Na+” value (Rattus norvegicus [39])?
**A.** 2.17 m equiv

**Q.** And the “Excretion K+” value (Rattus norvegicus [40])?
**A.** 0.17 m equiv

**Q.** And the “Excretion Cl-” value (Rattus norvegicus [41])?
**A.** 1.43 m equiv

**Q.** What about the V (Canis familiaris [42]) of the same molecule?
**A.** 59 mL

**Q.** And the “Excretion Cl-” value (Rattus norvegicus [43])?
**A.** 1.73 m equiv

**Q.** What about the “Excretion K+” value (Canis familiaris [44]) of the same molecule?
**A.** 0.4 m equiv

**Q.** And the “Excretion Na+” value (Rattus norvegicus [45])?
**A.** 1.65 m equiv

**Q.** And the “Excretion K+” value (Rattus norvegicus [46])?
**A.** 0.05 m equiv

**Q.** What about the V (Rattus norvegicus [47]) of the same molecule?
**A.** 9.1 mL

**Q.** And the “Excretion K+” value (Rattus norvegicus [48])?
**A.** 0.05 m equiv
